According to patent US9408859B2, “Pharmaceutical compositions useful for preventing and treating cancer” (Mitotech SA, priority 2007, dated 2016):
Several values for one entry are separate records, joined by “and”; a condition that tells them apart may be missing. Equal entries are not always repeated.

Assays:
HCT116 p53−/− = test: Growth of human large intestine carcinoma xenografts, inactivated p53; format: in vivo, mouse
Source text: (§1) Two human large intestine carcinoma cell sub-lines that differ by p53 status—wild type cells (HCT116 p53+/+)) and cells with inactivated p53 (HCT116 p53−/−)) cell line cultivation see in Bunz et al. (1998) Science, 282:1497-1500; see model description in Sablina et al. (2003), J. Biol. Chem., 278:27362-27371. One million cells were hypodermically implanted into thymus-deprived mice. Mice in each group were divided into 4 sub-groups of 10 mice: one group received water to drink; one group received water with SkQ1 (0.01 nmol) per mouse per day (0.5 nM/kg/day); one group received water with SkQ1 (0.1 nmol) per mouse per day (5 nM/kg/day); one group received water with SkQ1 (1 nmol) per mouse per day (50 nM/kg/day).
(§2) The size of the tumors was evaluated every 3 days. After 4 weeks mice were sacrificed and the tumors removed and fixed for histological assay.

[1] = Tolerance to the treatment and autopsy in mice with A-431 xenografts; format: in vivo
Procedure: Tolerance to the treatment was estimated according to the time of death which corresponded to the treatment with each preparation.
(§3) Mice were sacrificed by ether anesthesia overdose. An autopsy was performed, and tumors were then extracted and assayed histologically and immunohistochemically. Tumors were fixed in 10% formaldehyde and set into paraffin wax. Histological assays were carried out on tumor histological sections, stained with hematoxylin and eosin. The number of microvessels was examined by standard immunological method using antibodies to CD34 antigen. Presence of vessel mimicry was estimated by tumor section staining with Schiffs reagent.

[2] = system: A-431 human skin cancer heteroxenografts; test: Anti-tumoral activity on A-431 heteroxenografts (tumor volume, T/C, histology); format: in vivo, mouse
Procedure: Before administration, SkQ1 was diluted with sterile physiological saline up to 0.5 μM and 5.0 μM. The preparation was injected intraperitoneally as single doses of 5.0 nM/kg and 50.0 nM/kg, 0.2 ml/mouse.
(1973) 51:1417-1423. • Morphology: epithelial. • Cultivation method: monolayer. • Cultivation conditions: 10% bovine embryonal serum DMEM culture. • Procedure of seeding: cell removal using 0.25% trypsin, 0.02% versene (3:7), ratio of seeding 1:3 1:6, optimal density 2.04.0×10^4 cell per sm^2 cryopreservation media, 10% DMSO, 1.0×10^6 cells/ml per ampoule. • Viability after cryopreservation: 83% (trypan blue staining on zero passage) • Contamination control: no bacteria, fungi or micoplasma detected • Genetic identity control: karyological, enzymatic (LDH, G6PDH) analysis. • Karyology: 2n-46, chromosome variability limit 5777, chromosome modal number 6871 • Tumorigenicity: tumorigenic in HIV mice and in mice treated with antithymocyte serum. • Other features: large number of receptors to epidermal growth factor. • Application area: growth factors study, cell biology. • Collection: ATCC CRL 1555; ECACC 85090402; INC RAS.
A-431 cells were grown on RPMI-1640 medium that contained 10% calf serum and 1 mM glutamine. Cells were transferred to a flask at a ratio of 1:2 or 1:3 from full monolayer. The medium was changed every 2 to 3 days. A cultivated cell suspension was then used to engraft HIV mice.
The experiment was performed using HIV female mice Balb/c nude at the age 8 to 9.5 weeks. All mice were raised in GU RONC. Mice were managed in specialized virus-free chamber with sterile aeration, fed with sterile briquette food and water under normalized temperature condition and moisture.
Cells of A-431 cell line were hypodermically implanted only once in number 1.7-1×10^6 per mouse in 0.2 ml of RPMI-1640 nutrition medium.
Anti-tumoral effect estimation was carried out using common rate T/C (Treatment/Control), evaluated as a ratio of average tumor volumes in treated and control groups given in percents. Rate was taken evaluated using the following formula T/C %=[…],
where Vo and Vk are the mean volumes of tumor in treated and control groups thereof. Thus, in the control group, T/C=100%. Mean volume was evaluated using the following formula: Vm (mm^3)=axbxc. T/C≦42% was taken as a minimal efficiency criterion (Anticancer Drug Development Guide (1997) (ed. B. A. Teicher) Humana Press, Totowa, N.J., pp. 101-125). To analyze the speed of growth (standarcy value), a ratio of mean tumor relative to the first one taken was determined as follows.
Evaluation started after the appearance of a palpable tumor (9 days after implantation). After that multiple tumor volume evaluations were performed until the 20th day after transplantation. The first evaluation of treated groups was performed during treatment, and the next three evaluations were performed during 6 days after end of the treatment. Tumor evaluations were stopped on the 21st to the 24th day after the first mouse died in three experiments.
as §3

[3] = system: Mouse Ras-transformed fibroblast cells; test: Effect on morphology and adherence of Ras-transformed cells; format: cell-based
Procedure: The experiment was carried out using cells, transformed with genetic construct, expressing oncogene RAS, and thus modeling conditions of cells underwent cancerous transformation. (see, model description in Levina, et al. (1996), Exp. Cell. Res., November 25; 229(1):159-165).
Mouse Ras-transformed fibroblast cells had strongly expressed changed morphology (FIG. 1), one close to morphology of metastasizing cancerous cells (decrease in surface square, cell elongation). […] Cells were poorly adherent and spread-eagled what led to monolayer structure disorder.
However incubation with SkQ1 led to significant changes in cells morphology (FIG. 1). […] Morphological changes correlated with actinic fibrils increase in content, focal contact reinforcement and cell better adherence to the surface.

HCT116 p53+/+ = test: Growth of human large intestine carcinoma xenografts, wild type p53; format: in vivo, mouse; details: SkQ1 in drinking water, 0.5-50 nM/kg/day, 4 weeks
Source text: as §1, §2

[4] = Experiment 1, 5.0 nM/kg ip daily day 1-14
[5] = Experiment 1, 50.0 nM/kg ip daily day 1-14
[6] = Experiment 3, 5.0 nM/kg ip daily day 1-14
[7] = Experiment 1 material, Group 2, 5.0 nM/kg

Compound: CC1=C(C)C(=O)C(CCCCCCCCCC[P+](c2ccccc2)(c2ccccc2)c2ccccc2)=CC1=O [SkQ1]
- Effect on tumors with inactivated p53 compared to WT p53 (HCT116 p53−/−; SkQ1 in drinking water): stronger effect on the tumor with inactivated p53
- Tumor growth vs control group receiving pure water (HCT116 p53−/−; SkQ1 in drinking water, 0.5-50 nM/kg/day, 4 weeks, inactivated p53): suppression of tumor growth
- dose of maximal effect (HCT116 p53−/−; added to drinking water): 5 nM
- efficient concentration (HCT116 p53−/−; in drinking water, equals 5 nM/kg/day, stated for the HCT116 study): 0.1 nmol per mouse per day
- Autopsy findings in organs [1, 4]: no visual signs of pathological changes
- Treatment tolerance [1, 4]: satisfactory
- Autopsy findings in organs [1, 5]: no pathological changes
- Treatment tolerance [1, 5]: satisfactory
- Autopsy findings in organs ([1]; Experiment 2, 5.0 nM/kg ip daily day 1-8): no visual signs of pathological changes
- Autopsy findings in organs [1, 6]: no visual signs of pathological changes
- Treatment tolerance [1, 6]: satisfactory
- T/C ([2]; Experiment 1, 5.0 nM/kg ip daily day 1-14, 14th day): 74%
- T/C ([2]; Experiment 1, 5.0 nM/kg ip daily day 1-14, 17th day): 67%
- T/C ([2]; Experiment 1, 5.0 nM/kg ip daily day 1-14, 20th day): 73%
- T/C ([2]; Experiment 1, 5.0 nM/kg ip daily, 9th day (after 8 injections)): 63%
- T/C ([2]; Experiment 1, 50.0 nM/kg ip daily day 1-14, 9th day): 159%
- T/C ([2]; Experiment 1, 50.0 nM/kg ip daily day 1-14, 14th day): 160%
- T/C ([2]; Experiment 1, 50.0 nM/kg ip daily day 1-14, 17th day): 134%
- T/C ([2]; Experiment 1, 50.0 nM/kg ip daily day 1-14, 20th day): 146%
- Tumor differentiation (histological assay) ([2]; Experiment 1 material, 5.0 nM/kg, vs control): partial tumor differentiation
- Number of microvessels in tumors (CD34, hot spots) ([2]; Experiment 1 material, 23rd day, 9th day after end of treatment, three groups (control, 5.0 and 50.0 nM/kg)): did not statistically differ
- Microvessel diameter [2, 7]: smaller diameter than in the control group
- Signs of vasculogenic mimicry (PAS staining) [2, 7]: no such signs were seen
- T/C ([2]; Experiment 2, 5.0 nM/kg ip daily day 1-8, 8th day): 61%
- T/C ([2]; Experiment 2, 5.0 nM/kg ip daily day 1-8, 14th day): 72%
- T/C ([2]; Experiment 2, 5.0 nM/kg ip daily day 1-8, 17th day): 96%
- T/C ([2]; Experiment 2, 5.0 nM/kg ip daily day 1-8, 24th day): 101%
- T/C ([2]; Experiment 3, 5.0 nM/kg ip daily day 1-14, immediately after the end of the treatment): 41% and 42%
- inhibition of growth ([2]; long-termed injection, single doses 5.0 nM/kg, in some cases): 50%
- Mean cell surface square value ([3]; Ras-transformed fibroblasts incubated with SkQ1): increased manifold
- Monolayer formation ([3]; Ras-transformed fibroblasts treated with SkQ1): formed monolayers similar to those of normal fibroblasts
- Tumor growth vs control group receiving pure water (HCT116 p53+/+): suppression of tumor growth
